Consider 27 compounds from US9540391B2, “Isomannide derivatives as inhibitors of soluble epoxide hydrolase” (SANOFI, priority 2013, dated 2017).

Usually IC50 stands for the point on the concentration scale where inhibition reaches its midpoint.

Counter-ions that a name gives are not always drawn.

This assay deals with T1, recombinant sEH (Homo sapiens, UniProt P34913).
T1 construct: made in house; host or cells: Sf9 insect cells
T1 sequence (P34913 1-555): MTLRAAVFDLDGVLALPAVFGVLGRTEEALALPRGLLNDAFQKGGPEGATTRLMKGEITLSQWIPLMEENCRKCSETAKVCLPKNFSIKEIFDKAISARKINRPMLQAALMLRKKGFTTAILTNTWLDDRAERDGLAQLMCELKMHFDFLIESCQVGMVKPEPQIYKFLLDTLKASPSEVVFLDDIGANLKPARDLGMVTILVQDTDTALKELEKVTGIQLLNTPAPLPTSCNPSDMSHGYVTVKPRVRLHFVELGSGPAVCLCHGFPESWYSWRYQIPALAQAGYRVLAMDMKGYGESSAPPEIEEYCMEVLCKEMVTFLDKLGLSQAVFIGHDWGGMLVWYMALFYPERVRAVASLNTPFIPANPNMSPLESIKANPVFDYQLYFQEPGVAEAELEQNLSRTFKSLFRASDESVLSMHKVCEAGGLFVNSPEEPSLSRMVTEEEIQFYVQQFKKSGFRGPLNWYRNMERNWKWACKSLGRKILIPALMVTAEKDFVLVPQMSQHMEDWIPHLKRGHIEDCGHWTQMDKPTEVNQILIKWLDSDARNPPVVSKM
Description: biochemical screening assay for inhibition of soluble epoxide hydrolase (fluorometric, Phome substrate). How it is done:
The ability of the compounds of the formula I to inhibit soluble epoxide hydrolase can be determined as follows:
Compounds were tested in a biochemical screening assay using recombinant sEH purified from Sf9 insect cells and an artificial substrate, (3-phenyl-oxiranyl)-acetic acid cyano-(6-methoxy-naphtalen-2-yl)-methyl ester, Phome. The biochemical assay was performed in analogy to a fluorometric method described in the literature (P. D. Jones et al., Anal. Biochem. 2005, 343, 66-75). The assay principle bases on the sEH-catalyzed hydrolysis of an artificial α-cyano-ester substrate. 0-deacetylation liberates a cyanohydrin intermediate that rapidly decomposes to the highly fluorescent 6-methoxy-2-naphtaldehyde. To discriminate sample autofluorescence, the assay was carried out as a kinetic measurement with two time points. The first measurement is performed immediately before addition of the substrate and the second measurement is done after completion of the assay. The assay format is either in 96- or in 384-well format. Details of the assay using a 96-well plate format are described below. 40 μL recombinant sEH enzyme and 5 μL test compound are pre-incubated for 15 minutes at 30° C. Following pre-incubation, the reaction is started by addition of 5 μL Phome. The assay mixture containing 2 nM final sEH concentration, test compound ranging in a concentration from 0.0001-10 μM and 5 μM Phome is incubated for 60 minutes at 30° C.
Fluorescence can be measured with any suitable detector for instance a TECAN Safire or Tecan Ultra at […]. % inhibition of recombinant sEH activity is used for calculation of corresponding IC50 values as illustrated and described in the examples.
The NCBI gene bank reference sequence with the accession number NM_001979 for EPHX2/sEH was applied for recombinant protein production:
The following commercially available materials have been used: • Incubation reagent: 25 mM Hepes (Sigma-Aldrich, Cat. No H-3375), 0.01% bovine albumin (Sigma-Aldrich Cat. No PA9205) • Substrate: 3-Phenyl-oxiranyl)-acetic acid cyano-(6-methoxy-naphtalen-2-yl)-methyl ester, Phome (Biozol Cat. No 10003134) • Microtiter plates: 96-well plates (Greiner Cat. No 655180; Costar Cat. No 3915)

Take `O=C(NC1CCCCC1)N[C@H]1CO[C@H]2[C@@H]1OC[C@H]2O` [Example 1, 1-cyclohexyl-3-((3S,3aR,6R,6aR)-6-hydroxy-hexahydro-furo[3,2-b]furan-3-yl)-urea]: the IC50 stood at 305 nM.
Then `Cc1ccc(S(=O)(=O)O[C@@H]2CO[C@H]3[C@@H]2OC[C@@H]3NC(=O)NC2CCCCC2)cc1` [Example 2, toluene-4-sulfonic acid (3R,3aS,6S,6aR)-6-(3-cyclohexyl-ureido)-hexahydro-furo[3,2-b]furan-3-yl ester], with 19 nM; and `O=C(NC1CCCCC1)N[C@H]1CO[C@H]2[C@@H]1OC[C@@H]2Oc1ccccn1` [Example 3, 1-cyclohexyl-3-[(3S,3aR,6S,6aS)-6-(pyridin-2-yloxy)-hexahydro-furo[3,2-b]furan-3-yl]-urea], with 12 nM; and `O=C(NC1CCCCC1)N[C@H]1CO[C@H]2[C@@H]1OC[C@@H]2OC(=O)N1CCOCC1` [Example 4, morpholine-4-carboxylic acid (3S,3aS,6S,6aR)-6-(3-cyclohexyl-ureido)-hexahydro-furo[3,2-b]furan-3-yl ester], with 16 nM.
Then `O=C(NC1CCCCC1)N[C@H]1CO[C@H]2[C@@H]1OC[C@@H]2Oc1c[nH]c2ccccc12` [Example 5, 1-cyclohexyl-3-[(3S,3aR,6S,6aS)-6-(1H-indol-3-yloxy)-hexahydro-furo[3,2-b]furan-3-yl]-urea], with 3 nM.
For `O=C(NC1CCCCC1)N(Cc1ccccc1)[C@H]1CO[C@@H]2[C@@H](CO)CO[C@@H]21` [Example 6, 1-benzyl-3-cyclohexyl-1-((3S,3aR,6S,6aR)-6-hydroxymethyl-hexahydro-furo[3,2-b]furan-3-yl)-urea] the value was 8000 nM; for `NC[C@H]1CO[C@H]2[C@@H]1OC[C@@H]2N(Cc1ccccc1)C(=O)NC1CCCCC1` [Example 7, 1-((3S,3aR,6S,6aR)-6-aminomethyl-hexahydro-furo[3,2-b]furan-3-yl)-1-benzyl-3-cyclohexyl-urea; trifluoroacetate], 258 nM; for `NC[C@H]1CO[C@H]2[C@@H]1OC[C@@H]2NC(=O)NC1CCCCC1` [Example 8, 1-((3S,3aR,6S,6aR)-6-aminomethyl-hexahydro-furo[3,2-b]furan-3-yl)-3-cyclohexyl-urea; trifluoroacetate], 14500 nM.
For `CN(C)C[C@H]1CO[C@H]2[C@@H]1OC[C@@H]2NC(=O)NC1CCCCC1` [Example 9, 1-cyclohexyl-3-((3S,3aR,6S,6aR)-6-dimethylaminomethyl-hexahydro-furo[3,2-b]furan-3-yl)-urea; trifluoroacetate], the IC50 was 450 nM.
For `COC(=O)c1ccc(O[C@H]2CO[C@H]3[C@@H]2OC[C@@H]3NC(=O)NC2CCCCC2)cc1` [Example 10, 4-[(3S,3aS,6S,6aR)-6-(3-cyclohexyl-ureido)-hexahydro-furo[3,2-b]furan-3-yloxy]-benzoic acid methyl ester] the value was 3 nM; for `O=C(NC1CCCCC1)N[C@H]1CO[C@H]2[C@@H]1OC[C@@H]2Oc1ccc(C(=O)O)cc1` [Example 11, 4-[(3S,3aS,6S,6aR)-6-(3-cyclohexyl-ureido)-hexahydro-furo[3,2-b]furan-3-yloxy]-benzoic acid], 5 nM.
Then `O=C(NC1CCCCC1)N[C@H]1CO[C@H]2[C@@H]1OC[C@@H]2SC1CCCCC1` [Example 12, 1-cyclohexyl-3-((3S,3aR,6S,6aS)-6-cyclohexylsulfanyl-hexahydro-furo[3,2-b]furan-3-yl)-urea], with 1 nM.
Then `O=C(NC1CCCCC1)N[C@H]1CO[C@H]2[C@@H]1OC[C@@H]2Nc1nccs1` [Example 13, 1-Cyclohexyl-3-[(3S,3aR,6S,6aR)-6-(thiazol-2-ylamino)-hexahydro-furo[3,2-b]furan-3-yl]-urea], with 167 nM.
`O=C(NC1CCCCC1)N[C@H]1CO[C@H]2[C@@H]1OC[C@@H]2SCCO` [Example 14, 1-Cyclohexyl-3-[(3S,3aR,6S,6aS)-6-(2-hydroxy-ethylsulfanyl)-hexahydro-furo[3,2-b]furan-3-yl]-urea]: the IC50 amounted to 19 nM.
Then `O=C(NC1CCCCC1)N[C@H]1CO[C@H]2[C@@H]1OC[C@@H]2Sc1ccc(F)cc1` [Example 15, 1-Cyclohexyl-3-[(3S,3aR,6S,6aS)-6-(4-fluoro-phenylsulfanyl)-hexahydro-furo[3,2-b]furan-3-yl]-urea], with below 1 nM.
With `CC(=O)NCCS[C@H]1CO[C@H]2[C@@H]1OC[C@@H]2NC(=O)NC1CCCCC1` [Example 16, N-{2-[(3S,3aS,6S,6aR)-6-(3-Cyclohexyl-ureido)-hexahydro-furo[3,2-b]furan-3-ylsulfanyl]-ethyl}-acetamide], the IC50 worked out at 8 nM.
Then `CC(C)S[C@H]1CO[C@H]2[C@@H]1OC[C@@H]2NC(=O)NC1CCCCC1` [Example 17, 1-Cyclohexyl-3-((3S,3aR,6S,6aS)-6-isopropylsulfanyl-hexahydro-furo[3,2-b]furan-3-yl)-urea], with 1 nM; and `COc1ccc(O[C@H]2CO[C@H]3[C@@H]2OC[C@@H]3NC(=O)NC2CCCCC2)cc1` [Example 18, 1-Cyclohexyl-3-[(3S,3aR,6S,6aS)-6-(4-methoxy-phenoxy)-hexahydro-furo[3,2-b]furan-3-yl]-urea], with 1 nM; and `O=C(NC1CCCCC1)N[C@H]1CO[C@H]2[C@@H]1OC[C@@H]2OCC(F)(F)F` [Example 19, 1-Cyclohexyl-3-[(3S,3aR,6S,6aS)-6-(2,2,2-trifluoro-ethoxy)-hexahydro-furo[3,2-b]furan-3-yl]-urea], with 9 nM.
Then `Cc1nc(-c2ccccc2O[C@H]2CO[C@H]3[C@@H]2OC[C@@H]3NC(=O)NC2CCCCC2)cs1` [Example 20, 1-Cyclohexyl-3-{(3S,3aR,6S,6aS)-6-[2-(2-methyl-thiazol-4-yl)-phenoxy]-hexahydro-furo[3,2-b]furan-3-yl}-urea], with 2 nM.
On to `CC(C)(C)S[C@H]1CO[C@H]2[C@@H]1OC[C@@H]2NC(=O)NC1CCCCC1` [Example 21, 1-((3S,3aR,6S,6aS)-6-tert-Butylsulfanyl-hexahydro-furo[3,2-b]furan-3-yl)-3-cyclohexyl-urea], for which the IC50 was found to be 1 nM.
On to `CC(C)(CCO)S[C@H]1CO[C@H]2[C@@H]1OC[C@@H]2NC(=O)NC1CCCCC1` [Example 22, 1-Cyclohexyl-3-[(3S,3aR,6S,6aS)-6-(3-hydroxy-1,1-dimethyl-propylsulfanyl)-hexahydro-furo[3,2-b]furan-3-yl]-urea], for which the IC50 came out at 3 nM.
Then `O=C(NC1CCCCC1)N[C@H]1CO[C@H]2[C@@H]1OC[C@@H]2Oc1ccccc1-c1ccccc1` [Example 23, 1-[(3S,3aR,6S,6aS)-6-(Biphenyl-2-yloxy)-hexahydro-furo[3,2-b]furan-3-yl]-3-cyclohexyl-urea], with 1 nM.
As for `O=C(NC1CCCCC1)N[C@H]1CO[C@H]2[C@@H]1OC[C@@H]2Oc1ccc(F)cc1` [Example 24, 1-Cyclohexyl-3-[(3S,3aR,6S,6aS)-6-(4-fluoro-phenoxy)-hexahydro-furo[3,2-b]furan-3-yl]-urea], the IC50 worked out at 4 nM.
Regarding `O=C(NC1CCCCC1)N[C@H]1CO[C@H]2[C@@H]1OC[C@@H]2SC1CCS(=O)(=O)C1` (stereo partly drawn) [Example 25, 1-Cyclohexyl-3-[(3S,3aR,6S,6aS)-6-(1,1-dioxo-tetrahydro-1λ6-thiophen-3-ylsulfanyl)-hexahydro-furo[3,2-b]furan-3-yl]-urea], the 50% inhibitory concentration (IC50) amounted to 8 nM.
Then `O=C(NC1CCCCC1)N[C@H]1CO[C@H]2[C@@H]1OC[C@@H]2Oc1ccccc1-c1nnn[nH]1` [Example 26, 1-Cyclohexyl-3-{(3S,3aR,6S,6aS)-6-[2-(1H-tetrazol-5-yl)-phenoxy]-hexahydro-furo[3,2-b]furan-3-yl}-urea], with 454 nM.
For `O=C(NC1CCCCC1)N[C@H]1CO[C@H]2[C@@H]1OC[C@@H]2Oc1cccc(Oc2ccccc2)c1` [Example 27, 1-Cyclohexyl-3-[(3S,3aR,6S,6aS)-6-(3-phenoxy-phenoxy)-hexahydro-furo[3,2-b]furan-3-yl]-urea] the value was 3 nM.
